Results as given in paper PMC11995724, “Antibiotic target discovery by integrated phenotypic and activity-based profiling of electrophilic fragments” (Cell chemical biology, 2025).

Test: in vitro
Details: human, hek293t cells

Compound	viability at 48 h, 25 µM [%]
C=CC(=O)N1CCC(C(=O)Nc2ccn(CC(=O)N(C)C)n2)CC1 [2-H12, N-{1-[(dimethylcarbamoyl)methyl]-1H-pyrazol-3-yl}-1-(prop-2-enoyl)piperidine-4-carboxamide]	71
C=CC(=O)NC(C)c1ccc(Oc2ccccc2)c(F)c1 (centres unmarked) [2-H13, N-[1-(3-fluoro-4-phenoxyphenyl)ethyl]prop-2-enamide]	68.8
C=CC(=O)N1CCC(C(=O)N2CCC(C(C)(C)O)CC2)CC1 [2-H14, 1-{4-[4-(2-hydroxypropan-2-yl)piperidine-1-carbonyl]piperidin-1-yl}prop-2-en-1-one]	60.8
C=CC(=O)NCCC1COCCO1 (centres unmarked) [2-H15, N-[2-(1,4-dioxan-2-yl)ethyl]prop-2-enamide]	74.3
C=CC(=O)N1CCC(C)C1 (centres unmarked) [2-H17, 1-(3-methylpyrrolidin-1-yl)prop-2-en-1-one]	71.5
C=CC(=O)N1CCC(C(=O)N2CCC(NC(=O)NC)CC2)CC1 [2-H18, 3-methyl-1-{1-[1-(prop-2-enoyl)piperidine-4-carbonyl]piperidin-4-yl}urea]	83
C=CC(=O)NC(C(N)=O)c1ccccc1F (centres unmarked) [2-H19, N-[carbamoyl(2-fluorophenyl)methyl]prop-2-enamide]	51.9
C=CC(=O)N(C)CC(=O)N1CCC(c2nc(-c3ccccc3)n[nH]2)CC1 [2-H20, N-methyl-N-{2-oxo-2-[4-(3-phenyl-1H-1,2,4-triazol-5-yl)piperidin-1-yl]ethyl}prop-2-enamide]	67.6
C=CC(=O)N1CC[C@H](NS(C)(=O)=O)C1 [2-H21, N-[(3S)-1-(prop-2-enoyl)pyrrolidin-3-yl]methanesulfonamide]	60.7
C=CC(=O)Nc1cc(NC(=O)[C@H]2C[C@@H](C(C)=O)C2(C)C)ccc1F [2-H22, (1S,3R)-3-acetyl-N-[4-fluoro-3-(prop-2-enamido)phenyl]-2,2-dimethylcyclobutane-1-carboxamide]	97.4
C=CC(=O)N1CC(c2ncon2)C1 [2-I03, 1-[3-(1,2,4-oxadiazol-3-yl)azetidin-1-yl]prop-2-en-1-one]	181
C=CC(=O)N1CCC(C(=O)N2CCn3ccnc32)CC1 [2-I04, 1-(4-{1H,2H,3H-[1,3]diazolo[1,2-a]imidazole-1-carbonyl}piperidin-1-yl)prop-2-en-1-one]	99.3
C=CC(=O)NCCN1CCOCC1C (centres unmarked) [2-I05, N-[2-(3-methylmorpholin-4-yl)ethyl]prop-2-enamide]	79.2
C=CC(=O)N1CCC(c2nnnn2C)CC1 [2-I06, 1-[4-(1-methyl-1H-1,2,3,4-tetrazol-5-yl)piperidin-1-yl]prop-2-en-1-one]	95.6
C=CC(=O)N1CCOC(c2ccccc2)C1 (centres unmarked) [2-I07, 1-(2-phenylmorpholin-4-yl)prop-2-en-1-one]	118
C=CC(=O)N(CC1CCOCC1)C1CC1 [2-I08, N-cyclopropyl-N-[(oxan-4-yl)methyl]prop-2-enamide]	88
C=CC(=O)NC[C@@H]1C[C@H](F)CN1Cc1csc(C)n1 [2-I09, N-{[(2S,4S)-4-fluoro-1-[(2-methyl-1,3-thiazol-4-yl)methyl]pyrrolidin-2-yl]methyl}prop-2-enamide]	192
C=CC(=O)N1CCC(c2cnn(C)c2)CC1 [2-I10, 1-[4-(1-methyl-1H-pyrazol-4-yl)piperidin-1-yl]prop-2-en-1-one]	83.2
C=CC(=O)NC(C)c1nnnn1-c1ccccc1 (centres unmarked) [2-I11, N-[1-(1-phenyl-1H-1,2,3,4-tetrazol-5-yl)ethyl]prop-2-enamide]	196
C=CC(=O)NCCNC(=O)c1c(C)cc(C)nc1C [2-I12, N-{2-[(2,4,6-trimethylpyridin-3-yl)formamido]ethyl}prop-2-enamide]	104
C=CC(=O)NCc1cn(-c2ccccc2)nn1 [2-I13, N-[(1-phenyl-1H-1,2,3-triazol-4-yl)methyl]prop-2-enamide]	76.1
C=CC(=O)N1CCC(C(=O)N(C)Cc2ccon2)CC1 [2-I14, N-methyl-N-[(1,2-oxazol-3-yl)methyl]-1-(prop-2-enoyl)piperidine-4-carboxamide]	90.3
C=CC(=O)N1CCC(c2ccnn2C)CC1 [2-I15, 1-[4-(1-methyl-1H-pyrazol-5-yl)piperidin-1-yl]prop-2-en-1-one]	96.5
C=CC(=O)NC1CC2(CCC(C(=O)O)CC2)C1 (centres unmarked) [2-I16, 2-(prop-2-enamido)spiro[3.5]nonane-7-carboxylic acid]	92.8
C=CC(=O)NC(c1nc(C)cs1)C(F)(F)F (centres unmarked) [2-I17, N-[2,2,2-trifluoro-1-(4-methyl-1,3-thiazol-2-yl)ethyl]prop-2-enamide]	102

Compound	viability at 48 h, 25 µM [%]
C=CC(=O)Nc1cccc(C(=O)C(C)(C)C)c1 [2-I18, N-[3-(2,2-dimethylpropanoyl)phenyl]prop-2-enamide]	105
C=CC(=O)N1CC2(CCCC2)CC1CO (centres unmarked) [2-I19, 1-[3-(hydroxymethyl)-2-azaspiro[4.4]nonan-2-yl]prop-2-en-1-one]	82.4
C=CC(=O)N(C)CC(=O)NCc1c(O)nnc(C)c1C [2-I20, N-({[(3-hydroxy-5,6-dimethylpyridazin-4-yl)methyl]carbamoyl}methyl)-N-methylprop-2-enamide]	91.6
C=CC(=O)Nc1ccc(C(=O)N2CCCC2C(=O)NC2CC2)cc1 (centres unmarked) [2-I21, N-cyclopropyl-1-[4-(prop-2-enamido)benzoyl]pyrrolidine-2-carboxamide]	175
C=CC(=O)Nc1ccc(N2CCCCC2)c(F)c1 [2-I22, N-[3-fluoro-4-(piperidin-1-yl)phenyl]prop-2-enamide]	92.5
C=CC(=O)NCC1CCc2nnc(C(C)C)n2C1 (centres unmarked) [2-J03, N-{[3-(propan-2-yl)-5H,6H,7H,8H-[1,2,4]triazolo[4,3-a]pyridin-6-yl]methyl}prop-2-enamide]	60.6
C=CC(=O)N(C)CC(=O)N1CCOC(c2ccccc2Cl)C1 (centres unmarked) [2-J04, N-{2-[2-(2-chlorophenyl)morpholin-4-yl]-2-oxoethyl}-N-methylprop-2-enamide]	72.1
C=CC(=O)NC(C)C(c1ccccc1Cl)n1cccn1 (centres unmarked) [2-J05, N-[1-(2-chlorophenyl)-1-(1H-pyrazol-1-yl)propan-2-yl]prop-2-enamide]	84.5
C=CC(=O)N1CCC(C(=O)N2CCC(Cc3ncon3)CC2)CC1 [2-J06, 1-(4-{4-[(1,2,4-oxadiazol-3-yl)methyl]piperidine-1-carbonyl}piperidin-1-yl)prop-2-en-1-one]	74.2
C=CC(=O)NCc1c(Cl)c(C(F)(F)F)nn1C [2-J07, N-{[4-chloro-1-methyl-3-(trifluoromethyl)-1H-pyrazol-5-yl]methyl}prop-2-enamide]	72.8
C=CC(=O)N1CCC(C(=O)N[C@H]2CC[C@@H](S(C)(=O)=O)CC2)CC1 [2-J08, 1-(prop-2-enoyl)-N-[(1s,4s)-4-methanesulfonylcyclohexyl]piperidine-4-carboxamide]	86.3
C=CC(=O)N1CCC(C(=O)Nc2cccc(-c3n[nH]c(C)n3)c2)CC1 [2-J09, N-[3-(5-methyl-1H-1,2,4-triazol-3-yl)phenyl]-1-(prop-2-enoyl)piperidine-4-carboxamide]	58.8
C=CC(=O)N1CCC(C(=O)N2CCCC(C)(CC)C2)CC1 (centres unmarked) [2-J10, 1-[4-(3-ethyl-3-methylpiperidine-1-carbonyl)piperidin-1-yl]prop-2-en-1-one]	67.4
C=CC(=O)NCC(O)c1ncccc1OC (centres unmarked) [2-J11, N-[2-hydroxy-2-(3-methoxypyridin-2-yl)ethyl]prop-2-enamide]	80.8
C=CC(=O)N1CCC(C(=O)N(C)CCn2cccn2)CC1 [2-J12, N-methyl-1-(prop-2-enoyl)-N-[2-(1H-pyrazol-1-yl)ethyl]piperidine-4-carboxamide]	74.5
C=CC(=O)N(C)Cc1cn(C2CC2)cn1 [2-J13, N-[(1-cyclopropyl-1H-imidazol-4-yl)methyl]-N-methylprop-2-enamide]	76.5
C=CC(=O)N1CCC(C(=O)N2CCC(CC(N)=O)C2)CC1 (centres unmarked) [2-J14, 2-{1-[1-(prop-2-enoyl)piperidine-4-carbonyl]pyrrolidin-3-yl}acetamide]	65
C=CC(=O)NCc1ccsc1S(N)(=O)=O [2-J15, N-[(2-sulfamoylthiophen-3-yl)methyl]prop-2-enamide]	53.1
C=CC(=O)N(CC)CC(=O)N1CC(C)(C)C1c1nccn1C (centres unmarked) [2-J16, N-{2-[3,3-dimethyl-2-(1-methyl-1H-imidazol-2-yl)azetidin-1-yl]-2-oxoethyl}-N-ethylprop-2-enamide]	59.5
C=CC(=O)NC1(Cn2cccn2)CC(F)(F)C1 [2-J17, N-{3,3-difluoro-1-[(1H-pyrazol-1-yl)methyl]cyclobutyl}prop-2-enamide]	54.5
C=CC(=O)NCCNC(=O)[C@@]12CC[C@@](C)(C(=O)O1)C2(C)C [2-J18, N-(2-{[(1S,4R)-4,7,7-trimethyl-3-oxo-2-oxabicyclo[2.2.1]heptan-1-yl]formamido}ethyl)prop-2-enamide]	52.8
C=CC(=O)NC1CCS(=O)(=O)c2ccc(F)cc21 (centres unmarked) [2-J19, N-(6-fluoro-1,1-dioxo-3,4-dihydro-2H-1lambda6-benzothiopyran-4-yl)prop-2-enamide]	55.4
C=CC(=O)NCc1ccc(C(=O)N2CCC(C(C)(C)O)CC2)cc1 [2-J20, N-({4-[4-(2-hydroxypropan-2-yl)piperidine-1-carbonyl]phenyl}methyl)prop-2-enamide]	74.2
C=CC(=O)N1CCC(c2nnc3n2CCCC3)CC1 [2-J21, 1-(4-{5H,6H,7H,8H-[1,2,4]triazolo[4,3-a]pyridin-3-yl}piperidin-1-yl)prop-2-en-1-one]	67.6
C=CC(=O)N(C)CC(=O)N1CCN(C(=O)c2cccc(O)c2)CC1 [2-J22, N-{2-[4-(3-hydroxybenzoyl)piperazin-1-yl]-2-oxoethyl}-N-methylprop-2-enamide]	97.7
